According to ChEMBL document CHEMBL1132095, “6-arylamino-5,8-quinolinediones and 7-arylamino-5,8-isoquinolinediones as inhibitors of endothelium-dependent vasorelaxation” (Bioorg Med Chem Lett, 1999):

How the values were obtained:
Rattus norvegicus [1] = species: Rattus norvegicus; assay: Percent of maximal acetylcholine (ACh)-induced vasorelaxation of the rat aorta; type: functional
Rattus norvegicus [2] = species: Rattus norvegicus; assay: Inhibitory activity on acetylcholine-induced vasorelaxation of phenylephrine-precontracted rat aorta with intact endothelium; type: functional, organism-based

Compound | EC50 (Rattus norvegicus [2]) | Emax (Rattus norvegicus [1])
O=C1C(Nc2ccc(F)cc2F)=CC(=O)c2ncccc21 | 288 nM | 94%
O=C1C=C(Nc2ccc(F)cc2F)C(=O)c2cnccc21 | 430 nM | 96%
O=C1C=CC(=O)c2ncccc21 | 519 nM | 80%
O=C1C=C(Nc2ccc(F)c(F)c2F)C(=O)c2cnccc21 | 1130 nM | 87%
O=C1C(Nc2ccc(F)c(F)c2F)=CC(=O)c2ncccc21 | 937 nM | 72%
O=C1C=C(Nc2ccc(F)c(F)c2)C(=O)c2cnccc21 | 640 nM | 81%
O=C1C(Nc2ccc(F)c(F)c2)=CC(=O)c2ncccc21 | 251 nM | 92%
O=C1C(Nc2ccc(OC(F)(F)F)cc2)=CC(=O)c2ncccc21 | 603 nM | 88%
O=C1C(Nc2cc(F)cc(F)c2)=CC(=O)c2ncccc21 | 449 nM | 91%
O=C1C=C(Nc2cc(F)cc(F)c2)C(=O)c2cnccc21 | 290 nM | 94%
O=C1C=CC(=O)c2ccccc21 [NAPHTHOQUINONE] | 127 nM | 98%
N=C(NCCC[C@H](N)C(=O)O)N[N+](=O)[O-] [NITROARGININE] | 1100 nM | 69%

Now from value to compound, other results behind:

EC50 (Rattus norvegicus [2]) | Compound | Emax (Rattus norvegicus [1])
562 nM | O=C1C=C(Nc2cccc(F)c2)C(=O)c2cnccc21 | 89%
607 nM | O=C1C(Nc2ccc(C(F)(F)F)cc2)=CC(=O)c2ncccc21 | 91%
335 nM | O=C1C(Nc2ccccc2)=CC(=O)c2ncccc21 | 77%
805 nM | O=C1C(Nc2cccc(F)c2)=CC(=O)c2ncccc21 | 85%
214 nM | O=C1C(Nc2ccc(I)cc2)=CC(=O)c2ncccc21 | 89%
1230 nM | O=C1C=C(Nc2ccc(F)cc2)C(=O)c2cnccc21 | 72%
220 nM | O=C1C=C(Nc2ccc(Cl)cc2)C(=O)c2ccccc21 | 98%
541 nM | O=C1C(Nc2ccc(F)cc2)=CC(=O)c2ncccc21 | 79%
190 nM | O=C1C=C(Nc2ccc(Cl)cc2)C(=O)c2cnccc21 | 96%
302 nM | O=C1C(Nc2ccc(Br)cc2)=CC(=O)c2ncccc21 | 88%
178 nM | O=C1C(Nc2ccc(Cl)cc2)=CC(=O)c2ncccc21 | 86%
330 nM | O=C1C=C(Nc2ccc(F)c(F)c2F)C(=O)c2ccccc21 | 97%
439 nM | O=C1C=C(Nc2ccccc2)C(=O)c2cnccc21 | 93%
239 nM | O=C1C=C(Nc2ccccc2)C(=O)c2ccccc21 | 98%
362 nM | O=C1C=C(Nc2ccc(F)cc2)C(=O)c2ccccc21 | 98%
